Data on three compounds can be found in ChEMBL document CHEMBL1201862, “PubChem BioAssay data set” (2004).

A word on the IC50: it is the concentration that inhibits the measured activity by half.

Activity calls are given as the source filed them. No stated cut-off is given here; in the data, actives have a measured IC50 and inactives only a lower limit.

Envelope glycoprotein gp160, sequence (Q6QLK5 whole entry, the tested form may be a part): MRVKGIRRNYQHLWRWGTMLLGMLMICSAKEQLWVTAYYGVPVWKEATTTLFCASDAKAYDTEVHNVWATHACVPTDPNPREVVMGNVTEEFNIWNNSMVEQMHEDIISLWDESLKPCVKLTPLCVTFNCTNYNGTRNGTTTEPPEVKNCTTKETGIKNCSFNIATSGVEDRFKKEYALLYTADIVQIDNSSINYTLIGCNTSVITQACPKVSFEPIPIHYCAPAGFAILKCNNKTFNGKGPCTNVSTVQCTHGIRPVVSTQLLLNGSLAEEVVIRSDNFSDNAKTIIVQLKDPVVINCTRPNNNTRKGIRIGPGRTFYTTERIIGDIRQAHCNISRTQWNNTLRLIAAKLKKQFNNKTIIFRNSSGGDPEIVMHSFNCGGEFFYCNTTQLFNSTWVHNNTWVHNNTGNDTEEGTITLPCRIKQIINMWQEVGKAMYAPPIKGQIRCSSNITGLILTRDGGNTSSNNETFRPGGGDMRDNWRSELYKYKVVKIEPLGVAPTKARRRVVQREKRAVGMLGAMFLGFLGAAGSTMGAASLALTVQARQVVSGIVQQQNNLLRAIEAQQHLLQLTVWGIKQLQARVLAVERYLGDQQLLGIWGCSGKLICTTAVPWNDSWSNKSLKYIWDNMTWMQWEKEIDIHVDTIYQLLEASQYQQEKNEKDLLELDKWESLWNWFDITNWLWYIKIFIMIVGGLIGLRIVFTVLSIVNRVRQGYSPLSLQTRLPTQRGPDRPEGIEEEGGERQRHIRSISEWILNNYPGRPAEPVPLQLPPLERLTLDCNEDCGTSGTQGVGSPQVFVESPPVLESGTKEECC

The experiment has as its target Envelope glycoprotein gp160 (Human immunodeficiency virus 1, UniProt Q6QLK5). The experiment is described as follows: inhibitors of HIV fusion peptide binding, primary screen, biochemical, uHTS, fluorescence dequenching (AID 1986).
As for `Cc1cccc(C)c1-n1cccc1/C=C1\SC(=S)N(c2cccc(C(=O)O)c2)C1=O`, the half-maximal inhibitory concentration (IC50) was 22.4 µM (active). Consider `CCCOc1ccc(C(=O)NNC(=S)NC(=O)c2cc(-c3ccccc3)nc3ccccc23)cc1`, for which the half-inhibitory concentration (IC50) is 30.9 µM (active).

`CCC(C)(C)C1CCc2c(sc(NC(=O)c3ccccc3C(=O)O)c2C#N)C1` (stereo not drawn): the half-inhibitory concentration (IC50) is 12.9 µM (active).
